Data as given in patent publication EP0569777A2 (Bayer Corporation, priority 1992, dated 1993).
Entries after “also recorded” stand apart in the source; their conditions may differ. Where a SMILES comes first, the peptide text is derived from it. [ ]: non-standard residue; d: D form. The star is where a group is joined. Sta = CC(C)C[C@H](N)[C@@H](O)CC(=O)O; Isovaleryl = CC(C)CC(=O)*

What was measured:
Type in all cases: biochemical
[1] = target: human brain P-2 enzyme (peak B), aspartic protease identified as cathepsin D (Homo sapiens, UniProt P07339); test: Immunoblot assay of holo-APP 695 degradation by P-2 enzyme (peak B, 15-25 kDa gel filtration region); conditions: 100 uM pepstatin A in DMSO; P-2 enzyme 2.54 ug/ml, APP 168 nM, Mes buffer pH 6.5, 26 hr, 37°C; Figure 7
Description: Reactions (32 ul) were initiated at 37°C by APP addition to achieve the following initial component conditions: P-2 enzyme (2.54 ug/ml) fraction from the 15-25 kDa region of gel filtration (Figure 6); APP (168 nM), in 96 mM Mes buffer pH 6.5. Reactions were terminated after 26 hr by addition of 15 ul of 3X sample buffer, and subject to immunoblot analysis using a 1/1000 dilution of the rabbit polyclonal antiserum to the APP C-terminus. […] The effect of incubation of APP for 0hr (lanes 2 and 30) and 26 hr (lanes 3 and 28) are also shown. Lanes 6, 10, 14, 17, 21 and 25 contained enzyme alone. Lanes 4, 8, 12, 19, 23, and […] contained the C-100 standard. Prestained molecular weight markers are present in lanes 1 and 29. The 18 and 28 kDa C-terminal product fragments are located with arrows.
ii) Solubilization. […] Absorbance of column effluent was monitored at 280 nm using a Pharmacia UV-M detector and a Kippen-zonen chart recorder. […] In the initial studies, eluted fractions were monitored for A280 nm, total protein (Bradford assay), and peptidase activity (as decsribed in Examples 2 and 3). […] Fractions were monitored for A 280 nm, total protein (Bradford assay), peptidase activity, and activity for C-terminal processing of recombinant APP. […]

[2] = target: human cathepsin D (human liver, Cal Biochem, catalog # 219401) (Homo sapiens, UniProt P07339); test: Immunoblot assay of holo-APP 695 degradation by purified cathepsin D
Description: The numbers indicate the time (hr) after initiation of reactions. Reactions were initiated at 37°C by the addition of APP to achieve the following initial component concentrations: APP (82 nM), cathepsin D (9.2 ug/ml),in […] Mes buffer pH 6.5. Samples without pepstatin received the same amount of solvent (1.3 % v/v methanol). At t=0, 43, 84, 140 and 215 minutes aliquots (15 ul) were removed mixed with 7.5 ul of SDS-PAGE sample buffer and subject to immunoblot analysis using the Rabbit antiserum to the APP C-terminal domain. The 18 and 28 kDa reaction products are located with arrows.
Reactions were initiated at 37°C by APP addition thereby achieving the following initial component concentrations: APP (448 nM), cathepsin D (30 nM), and when included pepstatin A (97.2 µm) in 83 mM sodium acetate buffer pH 5.0. At the indicated time points, aliquots (20 ul), were removed mixed with 10 ul of 3X SDSPAGE sample buffer and subjected to immunoblot analysis using monoclonal antibody 286.8A (1/100). Reactions were performed in the absence (-) or presence (+) of pepstatin A (delivered in methanol). All samples received 2.7 % (v/v) methanol. Lanes 1 and 12 contained prestained Mr markers, Lanes 10 and 18 contained C-100 Mr marker. Lanes 11 and 13 contained APP incubated without cathepsin D for zero and 21hr respectively. The main product fragments are indicated with arrows. […]

[3] = test system: human AD brain fraction P2 V APP degrading activity; test: Immunoblot assay of APP 695 degradation by Mono-Q pool P2 V; conditions: 11.5 kDa fragment, trial A,B, Pepstatin A 400µM (methanolic), pH 6.5, 24 hrs, 37°C
Description: ii) Solubilization. The membranous control or AD subfractions (P-2 or M) were solubilized by adjusting to the following conditions: 2% (v/v) Triton X-100 containing 50 mM Tris HCl buffer, pH 7.5. After stirring at 4°C for 3.5 hrs, the suspensions were centrifuged at 105,000 g x 60 min in a Beckman 70 Ti rotor. The following final protein concentrations were used in solubilization, for P-2 (3.9 to 4.0 mg/ml); and for M (1.4 to 1.6 mg/ml). Solubilized supernatants were stored at -70°C for later use. The soluble fraction was not treated with detergent but rather was adjusted to 50 mM in Tris HCl, pH 7.5, by the addition of stock 1M buffer. iii) Ion-exchange chromatography. Chromatography was performed using a Gilson gradient liquid chromatograph (model 305 and 306 pumps) equipped with a 50 ml Rheodyne stainless steel loop injector model 7125, and connected to a Mono Q HR 10/10 column (Pharmacia, Piscataway, NJ). Absorbance of column effluent was monitored at 280 nm using a Pharmacia UV-M detector and a Kippen-zonen chart recorder. […] In the initial studies, eluted fractions were monitored for A280 nm, total protein (Bradford assay), and peptidase activity (as decsribed in Examples 2 and 3). […] Fractions were monitored for A 280 nm, total protein (Bradford assay), peptidase activity, and activity for C-terminal processing of recombinant APP. […]

human cathepsin D (human liver, Cal Biochem, catalog # 219401), sequence (P07339 with tags, fused parts or gaps): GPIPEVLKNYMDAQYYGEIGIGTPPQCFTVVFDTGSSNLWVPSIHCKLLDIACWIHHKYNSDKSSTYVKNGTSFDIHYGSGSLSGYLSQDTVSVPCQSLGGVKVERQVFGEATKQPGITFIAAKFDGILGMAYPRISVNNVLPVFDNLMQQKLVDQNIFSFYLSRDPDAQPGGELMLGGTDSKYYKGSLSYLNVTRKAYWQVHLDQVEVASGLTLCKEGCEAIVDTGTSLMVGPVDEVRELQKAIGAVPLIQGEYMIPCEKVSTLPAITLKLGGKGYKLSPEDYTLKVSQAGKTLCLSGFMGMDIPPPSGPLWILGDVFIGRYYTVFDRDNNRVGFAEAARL
human brain P-2 enzyme (peak B), aspartic protease identified as cathepsin D, sequence (P07339 with tags, fused parts or gaps): as above

Compound: CC(C)CC(=O)N[C@H](C(=O)N[C@H](C(=O)N[C@@H](CC(C)C)[C@@H](O)CC(=O)N[C@@H](C)C(=O)N[C@@H](CC(C)C)[C@@H](O)CC(=O)O)C(C)C)C(C)C [pepstatin A] (Isovaleryl-VV[Sta]A[Sta]-OH)
- Inhibition of peak B APP degrading activity [1]: quantitative inhibition
- Inhibition of cathepsin D catalysed APP cleavage (18 and 28 kDa C-terminal products) ([2]; 86 uM pepstatin A, APP 82 nM, cathepsin D 9.2 ug/ml, Mes buffer pH 6.5, 37°C, Figure 8): Inhibition
- Inhibition of cathepsin D catalysed APP degradation (beta-amyloid immunoreactive bands, Figure 13) ([2]; pepstatin A 97.2 µm, APP 448 nM, cathepsin D 30 nM, sodium acetate buffer pH 5.0, 37°C): inhibited
- Inhibitors (pH 6.5): compounds causing complete inhibition are listed [3]: completely; also recorded: pepstatin A aprotinin
